Columns and labels:
[1] = system: SH-SY5Y cells; assay: Toxicity in SH-SY5Y neuronal cell line, reduction of cell viability (MTT); assay type: cell-based
Protocol: In order to assess cellular viability, we measured the metabolic reduction of 3-(4,5-Dimethylthiazol-2-yl)-2,5 diphenyltetrazolium bromide (MTT). MTT is an indirect assay to measure cellular viability. It is a colorimetric method based on the reduction of 3-(4,5-Dimethylthiazol-2-yl)-2,5 diphenyltetrazolium. This process is performed by the mitochondrial enzyme succinate-dehydrogenase present in metabolic active cells. Thus, the water-soluble yellow MTT (tetrazolium salt) is transformed into a insoluble purple compound (formazan). Quantity of living cells is directly proportional to the quantity of formazan (Mosmann, 1983, J Immunol Methods, 65: 55-63). […] Therefore, with this assay we can measure cellular surviving and proliferation and also, we can determine the cytotoxicity of potential neuroprotective compounds. In order to assess cellular viability in SH-SY5Y cell line, we added 30 μl/well of MTT (5 mg/mL) and after 2 h, medium was carefully removed to avoid losing the formazan and was diluted in 300 μL of DMSO. Afterwards, samples were transferred to a 96 well-plate and the absorbance was measured at 570 nm using a absorbance/fluorescence reader FluoStar optima®. Every MTT assay was performed in triplicates. Absorbance values obtained with the toxic alone were subtracted to the absorbance values obtained in basal conditions (without treatment). That result was considered as the 100% of cell death and the values obtained with the compounds in the presence of the toxic stimulus were normalized as percentages of that value. For determining the surviving percentage, those percentages of cell death were subtracted to 100. […]
In order to further study its safety profile, the effect of the derivatives on neuronal cells used for neuroprotection experiments, the SH-SY5Y human neuroblastoma cells, was also evaluated. Maintenance and culture methods of this cell line have been described above. For toxicity experiments, SH-SY5Y cells were plated in 96-well plates at the density of 6×10 ^4 cells/well. The experimental conditions were the same as those described for the toxicity study in HepG2 cells.
The results obtained are shown in Table 6 expressed as the lethal dose 50 (LD50), or needed concentration to reduce to 50% the viability of basal conditions (without treatment), measured by the MTT reduction method.

[2] = Oxygen radical absorbance capacity (ORAC), free radical scavenger capacity; settings: fluorescein/AAPH, pH 7.4, trolox = 1
Protocol: In order to study the potential antioxidant effect of the compounds of the invention, we performed an oxygen radical absorbance capacity (ORAC) experiment.
For studying the free radical scavenger capacity, we measured the degree peroxide radical inhibition. Thus, scavenger capacity is measured as trolox equivalents and includes the disappearance of free radicals over time and the decrease of oxidative damage at the end of the experiment. The protocol used is based in the protocol developed by Ou and col. (Ou y col., 2001, J Agric Food Chem, 49: 4619-26) partially modified by Dávalos and col. (Davalos y col., 2004, J Agric Food Chem, 52: 48-54). The reaction was performed in phosphate tampon 75 mM (pH 7.4), with a final volume of 200 μL. 150 μL of fluorescein (final concentration of 70 nM) with 25 μL the compound of study at the desired concentration in triplicates, using surface transparent 96 well black plates for measuring fluorescence.
The mixture was pre-incubated during 15 min at 37° C. and, afterwards, 25 μL of a solution containing 2,2′-Azobis(2-amidinopropane) dihydrochloride (AAPH) (final concentration; 12 mM) were rapidly added. Fluorescence was immediately measured using a plate reader fluostar optima, using the filters of emission and excitation of […], respectively. Fluorescence intensity was measured during 90 min. Each compound was measured at 6 different concentrations. In the assay, fluorescein+AAPH in phosphate tampon was added as a blank and a calibration curve was performed using Trolox (1-8 μM). Every variable was prepared in duplicates and at least three independent experiments were performed for each compound. The curves of the compounds (F.I.—time) were normalized respect to the curve of the blank for each experiment and area under the curve (AUC) of the decreasing in fluorescence was calculated. AUC value of each compound was calculated subtracting the AUC of the blank. Regression curves between AUC and concentration of the compound were calculated for each of the samples. ORAC values were expressed as trolox equivalents with respect to the calibration curve of each assay, where the trolox value was considered 1.

[3] = system: Nrf2 transcription factor (Nrf2-ARE); assay: Nrf2-ARE induction, luciferase activity in AREc32 (MCF7 cells stably transfected with ARE-LUC); assay type: cell-based; settings: Homo sapiens, 24 h, basal = 1, read-out: Relative Luciferase activity (response versus basal)
Protocol: For the study of Nrf2 transcription factor, the cellular line AREC32 was used, which is characterized for being stably transfected with the reporter gene of Luciferase linked to the ARE sequence. In the presence electrophilic compounds or oxidative stress, Nrf2 factor binds to ARE sequences, activating luciferase expression and producing a proportional quantity of luciferase. The AREc32 cells were cultured in DMEM media with glutamax, supplemented with 10% fetal bovine serum (FBS), 1% penicillin-streptomycin and 1.6% geneticine (G418) (obtained from GIBCO, Madrid, Spain). Cells were cultured in 75 cm flasks with 11 mL of specific media, incubated at 37° C. and 5% of CO2. Cells were passed every 4-6 days (1:4), whenever the confluence reached 80%. For the experiments, cells were cultured in transparent surface 96 well plates at a density of […] with 100 μL/well. After 24 h in culture, cells were treated with the compounds at different concentrations (1, 10, 30 and 60 μM) during 24 h at 37° C. and 5% CO2. In every experiment it was also included a basal variable, a variable with 10 μM tert-butyl hydroquinone (TBHQ) (positive control) and the variables of the study in a final volume of 100 μL. After an incubation of 24 h with the compounds, luciferase activity was measured by bioluminescence using the commercial kit “Luciferase assay system” (Promega E1500). For that, treatments were removed and cells were washed with 100 μL of PBS 0.1 M. After washing, 20 μL of “lysis buffer” reactive was added to each well. 10 minutes later, luminescence was measured using the multi-well reader FluoStar optima (BMG labtech).
Luminescence was measured in arbitrary units and is directly proportional to luciferase quantity in the wells, which is also directly proportional to Nrf2 transcription factor induction by the specific compound at the established concentration. Measurements were made in duplicate and values were normalized to the basal luminescence value, considered as 1.
The results of Nrf2 induction obtained for the compounds 1 to 16 are shown in Table 1 and are expressed as induction, considering 1 the non-treated cells.

[4] = 24 h incubation, MTT, concentration reducing viability to 50% of basal

| SMILES | SH-SY5Y LD50 [1, 4] [µM] | ORAC (Trolox eq.) [2] [Trolox eq.] | fold induction at 10 µM [3] | fold induction at 30 µM [3] | fold induction at 60 µM [3] | SH-SY5Y LD50 ([1]; human, 24 h) [µM] |
| --- | --- | --- | --- | --- | --- | --- |
| CC(=O)NCCc1c[nH]c2ccc(OC(=O)/C=C/c3ccc(F)cc3)cc12 [Compound 9, 3-(2-acetamidoethyl)-1H-indol-5-yl (E)-3-(4-fluorophenyl)acrylate] | >100 | 3.44 ± 0.67 | 1.92 ± 0.2 | 2.27 ± 0.2 | 4.21 ± 0.6 |  |
| COc1ccc(/C=C/C(=O)Oc2ccc3[nH]cc(CCNC(C)=O)c3c2)cc1 [Compound 6, 3-(2-acetamidoethyl)-1H-indol-5-yl (E)-3-(4-methoxyphenyl)acrylate] | 60 | 3.51 ± 0.27 | 2.02 ± 0.2 | 3.4 ± 0.3 | 4.62 ± 0.4 |  |
| COc1cc(/C=C/C(=O)Oc2ccc3[nH]cc(CCNC(C)=O)c3c2)ccc1O [Compound 8, 3-(2-acetamidoethyl)-1H-indol-5-yl (E)-3-(4-hydroxy-3-methoxyphenyl)acrylate] | >100 | 8.04 ± 0.66 | 1.11 ± 0.1 | 1.83 ± 0.1 | 2.36 ± 0.1 |  |
| COc1ccccc1/C=C/C(=O)Oc1ccc2[nH]cc(CCNC(C)=O)c2c1 [Compound 4, 3-(2-acetamidoethyl)-1H-indol-5-yl (E)-3-(2-methoxyphenyl)acrylate] | 64 | 3.02 ± 0.20 | 1.67 ± 0.1 | 2.01 ± 0.1 | 2.53 ± 0.1 |  |
| CC(=O)NCCc1c[nH]c2ccc(OC(=O)/C=C/c3ccc(Br)cc3)cc12 [Compound 10, 3-(2-acetamidoethyl)-1H-indol-5-yl (E)-3-(4-bromophenyl)acrylate] | 60 | 2.53 ± 0.18 | 1.53 ± 0.2 | 3.12 ± 0.5 | 13.3 ± 2.1 |  |
| CC(=O)NCCc1c[nH]c2ccc(OC(=O)/C=C/c3ccccc3C(F)(F)F)cc12 [Compound 13, 3-(2-acetamidoethyl)-1H-indol-5-yl (E)-3-(2-(trifluoromethyl)phenyl)acrylate] | >100 | 3.33 ± 0.28 | 1.38 ± 0.1 | 1.79 ± 0.1 | 2.55 ± 0.2 |  |
| CC(=O)NCCc1c[nH]c2ccc(OC(=O)/C=C/c3ccc(O)cc3)cc12 [Compound 7, 3-(2-acetamidoethyl)-1H-indol-5-yl (E)-3-(4-hydroxyphenyl)acrylate] | >100 | 9.21 ± 0.81 | 0.95 ± 0.1 | 1.09 ± 0.1 | 1.57 ± 0.1 |  |
| CC(=O)NCCc1c[nH]c2ccc(OC(=O)/C=C/c3ccccc3)cc12 [Compound 2, 3-(2-acetamidoethyl)-1H-indol-5-yl cinnamate] | >100 | 4.30 ± 0.50 | 1.63 ± 0.2 | 1.78 ± 0.1 | 2.54 ± 0.3 |  |
| CC(=O)NCCc1c[nH]c2ccc(OC(=O)/C=C/c3ccc(C)cc3)cc12 [Compound 3, 3-(2-acetamidoethyl)-1H-indol-5-yl (E)-3-(4-methylphenyl)acrylate] | 80 | 4.44 ± 0.51 | 1.26 ± 0.1 | 2.03 ± 0.1 | 3.26 ± 0.3 |  |
| CC(=O)NCCc1c[nH]c2ccc(OC(=O)/C=C/c3ccc(Cl)cc3)cc12 [Compound 11, 3-(2-acetamidoethyl)-1H-indol-5-yl (E)-3-(4-chlorophenyl)acrylate] | >100 | 2.91 ± 0.32 | 1.18 ± 0.1 | 1.59 ± 0.2 | 3.55 ± 0.9 |  |
| CC(=O)NCCc1c[nH]c2ccc(OC(=O)/C=C/c3ccc(Cl)c(Cl)c3)cc12 [Compound 12, 3-(2-acetamidoethyl)-1H-indol-5-yl (E)-3-(3,4-dichlorophenyl)acrylate] | 51 | 5.37 ± 0.38 | 1.16 ± 0.1 | 1.43 ± 0.1 | 2.12 ± 0.2 |  |
| COc1ccc2[nH]cc(CCNC(C)=O)c2c1 [Melatonin, reference compound] |  |  |  |  |  | >100 |
| CC(=O)NCCc1c[nH]c2ccc(OC(=O)/C=C/c3cccc(C(F)(F)F)c3)cc12 [Compound 14, 3-(2-acetamidoethyl)-1H-indol-5-yl (E)-3-(3-(trifluoromethyl)phenyl)acrylate] | >100 | 4.13 ± 0.39 | 1.34 ± 0.2 | 1.64 ± 0.2 | 2.13 ± 0.2 |  |
| CC(=O)NCCc1c[nH]c2ccc(OC(=O)/C=C/c3ccc(C(F)(F)F)cc3)cc12 [Compound 15, 3-(2-acetamidoethyl)-1H-indol-5-yl (E)-3-(4-(trifluoromethyl)phenyl)acrylate] | 70 | 3.97 ± 0.38 | 2.34 ± 0.2 | 4.99 ± 0.5 | 28.9 ± 2.9 |  |
| COc1cccc(/C=C/C(=O)Oc2ccc3[nH]cc(CCNC(C)=O)c3c2)c1 [Compound 5, 3-(2-acetamidoethyl)-1H-indol-5-yl (E)-3-(3-methoxyphenyl)acrylate] | 83 | 3.52 ± 0.27 | 1.39 ± 0.1 | 1.63 ± 0.2 | 2.09 ± 0.2 |  |
| CC(=O)NCCc1c[nH]c2ccc(OC(=O)/C=C/c3ccc([N+](=O)[O-])cc3)cc12 [Compound 16, 3-(2-acetamidoethyl)-1H-indol-5-yl (E)-3-(4-nitrophenyl)acrylate] | >100 | 4.12 ± 0.49 | 1.69 ± 0.1 | 2.41 ± 0.1 | 3.19 ± 0.1 |  |

From patent US20180105492A1, “COMPOUNDS DERIVED FROM 3-ALKYLAMINE-1H-INDOLYL ACRYLATE AND THEIR USE IN THE TREATMENT OF NEURODEGENERATIVE DISEASES” (FUNDACION PARA LA INVESTIGACION BIOMEDICA DEL HOSPITAL …, priority 2014, published 2018)
